Results taken from PMC9863607, “Combined Use of Antimicrobial Peptides with Antiseptics against Multidrug-Resistant Bacteria: Pros and Cons” (Pharmaceutics, 2023).

Columns and labels:
E. coli ML-35p = test: Broth microdilution assay (MIC, planktonic bacteria); format: cell-based, Escherichia coli; conditions: antiseptics and surfactants; MHB, overnight 37 °C; median of 3–4 independent experiments; prontosan as polyhexanide
Procedure: (§1) In this regard the test plates were preincubated for 1 h at 37 °C with 0.1% bovine serum albumin (BSA) in distilled water before use. Bacteria were grown overnight at 37 °C with shaking in 2.1% Müller–Hinton broth (MHB), and then a small aliquot was transferred into the fresh portion of the same medium for another 2–3 h on the day of the experiment to provide us with the log phase bacterial suspension. Concentration of bacterial cells in suspension was evaluated based on absorbance at 620 nm and diluted down to 1 × 10^6 CFU/mL with MHB. Equal volumes of the prepared bacterial suspension in MHB and two-fold serial dilutions of the antimicrobials in 10 mM sodium phosphate (Na-P) buffer (pH 7.4) with 0.1% BSA were mixed and incubated overnight at 37 °C. The lowest concentration where no bacterial growth was observed the next day under visual examination was considered the minimal inhibitory concentration. The test was repeated at least three times, and the final MIC value was established as a median result. Each experiment was conducted in triplicates. Terasaki microplates (10 µL end volume, V-shaped bottom; Sarstedt, Nümbrecht, Germany) were used.

E. coli ESBL 521/17 = test: microbe, parasite or virus in culture; format: cell-based, Escherichia coli; conditions: antiseptics and surfactants; MHB, overnight 37 °C; median of 3–4 independent experiments; prontosan as polyhexanide
Procedure: as §1

A. baumannii 7226/16 = test: microbe, parasite or virus in culture; format: cell-based, Acinetobacter baumannii; conditions: antiseptics and surfactants; MHB, overnight 37 °C; median of 3–4 independent experiments; prontosan as polyhexanide
Procedure: as §1

P. aeruginosa MDR 522/17 = test: microbe, parasite or virus in culture; format: cell-based, Pseudomonas aeruginosa; conditions: antiseptics and surfactants; MHB, overnight 37 °C; median of 3–4 independent experiments; prontosan as polyhexanide
Procedure: as §1

[1] = test system: K. pneumoniae ESBL 344/17; test: microbe, parasite or virus in culture; format: cell-based, Klebsiella pneumoniae; conditions: antiseptics and surfactants; MHB, overnight 37 °C; median of 3–4 independent experiments; prontosan as polyhexanide
Procedure: as §1

S. aureus 1399/17 = test: microbe, parasite or virus in culture; format: cell-based, Staphylococcus aureus; conditions: antiseptics and surfactants; MHB, overnight 37 °C; median of 3–4 independent experiments; prontosan as polyhexanide
Procedure: as §1

[2] = test system: drug-resistant clinical isolates and E. coli ML-35p; test: Checkerboard titration, all tested bacteria together; format: cell-based; conditions: planktonic bacteria
Procedure: The mode of interaction of the test substances while applied in combinations was analyzed based on the calculation of the fractional (or combination) indices—the mathematical “embodiment” of the Loewe additivity paradigm that we used for the classification of combination effects in this study. As synergy is generally defined as a greater than additive effect, and antagonism as a lower than additive effect, the main problem is to establish a reference level for this additive effect. The Loewe approach uses the idea of the self-additivity of an individual substance; thus, the individual activity may be regarded as an additivity control. To identify additivity, synergy, or antagonism in Loewe terms, one should choose a fixed level of the studied effect and then compare the doses of individual substances required to reach this level, with the fractional doses of the substances in combination providing the same level of the effect.
In the case of activity testing of combinations toward planktonic bacteria, a checkerboard titration scheme was used to create an array of mixtures of the two substances (A and B) in various concentrations by diluting the first one two-fold row-by-row and the second one column-by-column. The left column and the bottom row contained the dilutions of only one substance (A or B) to control their individual activity levels in every experiment. […]

bacteria = conditions: cited from earlier work
Source text: Among surfactants, as was expected based on the literature data, sodium lauroyl sarcosinate was the most universally active toward bacteria. […] This is especially interesting in light of the fact that prontosan has an amidopopyl betaine in its composition alongside the poly ...

SMILES | MIC (E. coli ML-35p) | MIC (E. coli ESBL 521/17) | MIC (A. baumannii 7226/16) | MIC (P. aeruginosa MDR 522/17) | MIC [1] | MIC (S. aureus 1399/17) | Type of interaction with AMPs, antibacterial effect of combinations [2] | MICs by disk-diffusion method (bacteria)
[Na+].[O-]Cl [Sodium hypochlorite] | 5000 µg/mL | 5000 µg/mL | 2500 µg/mL | 5000 µg/mL | 5000 µg/mL | 10,000 µg/mL | antagonistic interaction | 
CCCCCCCCCCCC(=O)N(C)CC(=O)[O-].[Na+] [Sodium lauroyl sarcosinate] | 6250 µg/mL | 12,500 µg/mL | 25,000 µg/mL | 50,000 µg/mL | 12,500 µg/mL | >50,000 µg/mL | antagonistic interaction | 37.5 to 300 mg/mL
